US20260347364A1, “PYRAZOLO[4,3-F]QUINAZOLINE DERIVATIVES AS MODULATORS OF G12D MUTANT KRAS USEFUL FOR THE TREATMENT OF CANCER” (JAZZ PHARMACEUTICALS IRELAND LTD., priority 2023, published 2026)

Legend:
KRAS WT = molecular target: T1, KRAS WT (Homo sapiens, UniProt P01116); test: HTRF nucleotide exchange assay, KRAS WT; type: biochemical; conditions: HTRF nucleotide exchange assay (NEA), class symbols
T1 construct: aa1-188 KRAS WT

KRAS G12D = molecular target: T2, KRAS G12D (Homo sapiens, UniProt P01116, G12D); test: HTRF nucleotide exchange assay, KRAS G12D; type: biochemical; conditions: HTRF nucleotide exchange assay (NEA), class symbols
T2 construct: aa1-188 KRAS WT, HRAS WT, NRAS WT, or KRAS containing the G12D
T2 sequence (P01116 1-188 isoform P01116-2 G12D): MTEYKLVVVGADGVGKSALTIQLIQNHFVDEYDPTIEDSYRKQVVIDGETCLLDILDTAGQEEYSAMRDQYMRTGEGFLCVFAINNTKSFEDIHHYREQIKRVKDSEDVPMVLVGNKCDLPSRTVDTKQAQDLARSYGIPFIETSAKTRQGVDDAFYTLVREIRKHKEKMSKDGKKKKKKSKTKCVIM

T1 sequence (P01116 1-188 isoform P01116-2): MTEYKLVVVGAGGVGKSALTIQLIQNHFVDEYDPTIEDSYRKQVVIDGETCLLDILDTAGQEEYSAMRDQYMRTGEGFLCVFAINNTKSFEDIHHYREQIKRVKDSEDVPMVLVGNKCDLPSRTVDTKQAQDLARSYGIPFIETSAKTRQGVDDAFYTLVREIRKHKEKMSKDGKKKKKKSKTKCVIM

| Structure (SMILES) | IC50 (KRAS WT) | IC50 (KRAS G12D) |
| --- | --- | --- |
| CCc1c(F)ccc2cc(O)cc(-c3c(C)c4nc(OC[C@@]56CCCN5C[C@H](F)C6)nc(N5CCCOCC5)c4c4cn(C)nc34)c12 [Example 79, 4-[2,5-dimethyl-9-(1,4-oxazepan-4-yl)-7-[[(2R,8S)-2-fluoro-1,2,3,5,6,7-hexahydropyrrolizin-8-yl]methoxy]pyrazolo[4,3-f]quinazolin-4-yl]-5-ethyl-6-fluoro-naphthalen-2-ol] | ≤ 10 nM | ≤ 10 nM |
| CCc1c(F)ccc2cc(O)cc(-c3c(C)c4nc(OC[C@@]56CCCN5C[C@H](F)C6)nc(N5CC6CCC(C5)N6)c4c4cn(C)nc34)c12 [Example 96, tert-butyl 3-[4-bromo-7-[[(2R,8S)-2-fluoro-1,2,3,5,6,7-hexahydropyrrolizin-8-yl]methoxy]-2,5-dimethyl-pyrazolo[4,3-f]quinazolin-9-yl]-3,8-diazabicyclo[3.2.1]octane-8-carboxylate] | ≤ 10 nM | ≤ 10 nM |
| CCC1CCCc2cc(O)cc(-c3cc4nc(OC[C@@]56CCCN5C[C@H](F)C6)nc(N5CCCOCC5)c4c4cn(C)nc34)c21 (stereo partly drawn) [Example 66, 1-ethyl-8-[2-methyl-9-(1,4-oxazepan-4-yl)-7-[[(2R,8S)-2-fluoro-1,2,3,5,6,7-hexahydropyrrolizin-8-yl]methoxy]pyrazolo[4,3-f]quinazolin-4-yl]tetralin-6-ol] | 10 to 100 nM | 10 to 100 nM |
| CCc1c(F)ccc2cc(O)cc(-c3cc4nc(OC[C@@]56CCCN5C[C@H](F)C6)nc(N5CCOC6(COC6)C5)c4c4cn(C)nc34)c12 [Example 199, 4-[9-(2,5-dioxa-8-azaspiro[3.5]nonan-8-yl)-2-methyl-7-[[(2R,8S)-2-fluoro-1,2,3,5,6,7-hexahydropyrrolizin-8-yl]methoxy]pyrazolo[4,3-f]quinazolin-4-yl]-5-ethyl-6-fluoro-naphthalen-2-ol] | 10 to 100 nM | 10 to 100 nM |
| CCc1c(F)ccc2cc(O)cc(-c3c(F)c4nc(OCC5(CN6CC[C@H](O)C6)CC5)nc(N5CCOCC(C)(O)C5)c4c4cn(C)nc34)c12 (stereo partly drawn) [Example 190, 4-[4-(8-ethyl-7-fluoro-3-hydroxy-1-naphthyl)-5-fluoro-2-methyl-7-[[1-[[(3S)-3-hydroxypyrrolidin-1-yl]methyl]cyclopropyl]methoxy]pyrazolo[4,3-f]quinazolin-9-yl]-6-methyl-1,4-oxazepan-6-ol] | ≤ 10 nM | ≤ 10 nM |
| CCc1c(F)ccc2cc(O)cc(-c3c(F)c4nc(OCC5(CN6CC[C@@H](F)C6)CC5)nc(N5CCOCC(C)(O)C5)c4c4cn(C)nc34)c12 (stereo partly drawn) [Example 193, 4-[4-(8-ethyl-7-fluoro-3-hydroxy-1-naphthyl)-5-fluoro-2-methyl-7-[[1-[[(3R)-3-fluoropyrrolidin-1-yl]methyl]cyclopropyl]methoxy]pyrazolo[4,3-f]quinazolin-9-yl]-6-methyl-1,4-oxazepan-6-ol] | ≤ 10 nM | ≤ 10 nM |

Now from value to compound:

| IC50 (KRAS WT) | IC50 (KRAS G12D) | Structure (SMILES) |
| --- | --- | --- |
| 100 to 10000 nM | 100 to 10000 nM | CCc1c(F)ccc2cc(O)cc(-c3cc4nc(OCC5CCN(C)CC5)nc(N5CCCOCC5)c4c4cn(C)nc34)c12 [Example 31, 5-ethyl-6-fluoro-4-[2-methyl-7-[(1-methyl-4-piperidyl)methoxy]-9-(1,4-oxazepan-4-yl)pyrazolo[4,3-f]quinazolin-4-yl]naphthalen-2-ol] |
| 10 to 100 nM | ≤ 10 nM | CCc1c(F)ccc2cc(O)cc(-c3cc4nc(OC[C@@H]5C[C@@H](OC)CN5)nc(N5CCCn6nc(C(=O)N(C)C)cc6C5)c4c4cn(C)nc34)c12 [Example 51] |
| 100 to 10000 nM | 10 to 100 nM | CCc1c(F)ccc2cc(Cl)cc(-c3cc4nc(OC[C@@]56CCCN5C[C@H](F)C6)nc(N5CCCn6nc(C(=O)N(C)C)cc6C5)c4c4cn(C)nc34)c12 [Example 104, 5-[4-(3-chloro-8-ethyl-7-fluoro-1-naphthyl)-2-methyl-7-[[(2R,8S)-2-fluoro-1,2,3,5,6,7-hexahydropyrrolizin-8-yl]methoxy]pyrazolo[4,3-f]quinazolin-9-yl]-N,N-dimethyl-4,6,7,8-tetrahydropyrazolo[1,5-a][1,4]diazepine-2-carboxamide] |
